# Data reported in US11884675B2, “Heterocyclic compounds as triggering receptor expressed on myeloid cells 2 agonists and methods of use” (AMGEN INC., priority 2020, dated 2024).
# Target: hTREM2 (Homo sapiens, UniProt Q9NZC2)
# Assay: TREM2 agonist potency by Syk phosphorylation (AlphaLisa) in HEK293T-hTREM2 cells, used for Examples 306-429
# Type: cell-based
# Design: expressed in transfected cells; host or cells: HEK293T (HEK293T-hTREM2 cells)
# Details: HEK293 Cells
# Procedure: In vitro Measurement of Triggering Receptor Expressed on Myeloid Cells 2 activity using cellular phosphorylation of Spleen Tyrosine Kinase (“Syk”) Assays used for Examples 306-429
# Measurement of TREM2 agonist potency was done using a HEK cell line expressing human TREM2 and DAP12 (HEK293T-hTREM2 cells). Binding of small molecules to, and activation of, TREM2 increases the phosphorylation of Syk. The resultant levels of Syk phosphorylation were measured using a commercial AlphaLisa reagent kit. To perform the assay, HEK-hTREM2 cells were plated at 14,000 cells per well in a 384 well plate, in 25 μL, of complete growth media and incubated at 37° C., 5% CO2 for 20-24 hours. Prior to the assay, test compounds were diluted in the 384 well plates in assay buffer and allowed to equilibrate for 30 minutes. Growth media was removed from cell plates by inversion on blotting paper, and 25 μL of test compounds in assay buffer was added to cells. Cells were incubated for 45 minutes at room temperature. After 45 minutes, assay buffer was removed and 10 μL of lysis buffer was added. Plates were shaken for 20 minutes at 350 RPM at room temperature. After complete lysis, AlphaLisa reagents were added to the lysate, and fluourescence intensity was measured using a Perkin Elmer Envision plate reader. Intensities were used to generate a standard curve, and % activation was calculated. Curve fitting was performed using Prism v9 software, log(agonist) vs response-variable slope (four parameters), and EC50s were calculated from the curve fit.
# The results presented in Table 20 have been generated with the in vitro assay described above for Examples 306-429. This assay may be used to test any of the compounds described herein to assess and characterize a compound's ability to act as an agonist of TREM2.
# Sequence of hTREM2 (Q9NZC2 19-230): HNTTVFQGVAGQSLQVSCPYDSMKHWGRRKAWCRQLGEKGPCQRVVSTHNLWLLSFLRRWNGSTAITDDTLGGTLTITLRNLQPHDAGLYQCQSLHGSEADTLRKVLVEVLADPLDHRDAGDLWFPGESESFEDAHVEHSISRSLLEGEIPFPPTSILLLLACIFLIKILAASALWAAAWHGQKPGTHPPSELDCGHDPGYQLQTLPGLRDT
# Sequence of hTREM2 (O43914 22-113 partner): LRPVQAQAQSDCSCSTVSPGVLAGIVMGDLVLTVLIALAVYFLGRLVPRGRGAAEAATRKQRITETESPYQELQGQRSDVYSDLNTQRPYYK
row,Compound,EC50
1,"Cc1nc2cc(N3C[C@H](C)O[C@@H](c4cnn(C5CC5)c4)C3)nc(-c3ccc(F)cc3F)c2nc1C (racemic) [Example 357, 2-(1-cyclopropyl-1H-pyrazol-4-yl)-4-(5-(2,4-difluorophenyl)-2,3-dimethylpyrido[3,4-b]pyrazin-7-yl)-6-methylmorpholine]",≤ 50 nM
2,"Cc1cc([C@@H]2CN(c3nc(C45CC(C(F)(F)F)(C4)C5)c4ncc(C)nc4n3)CCO2)ccn1 [Example 353, (R)-4-(7-methyl-4-(3-(trifluoromethyl)bicyclo[1.1.1]pentan-1-yl)pteridin-2-yl)-2-(2-methylpyridin-4-yl)morpholine]",50 to 500 nM
3,"Cc1cc(C2CC(c3nc(-c4ccc(C(F)(F)F)nc4)c4ccc(C)nc4n3)CCO2)ccn1 (stereo not drawn) [Example 324, 7-methyl-2-(2-(2-methylpyridin-4-yl)tetrahydro-2H-pyran-4-yl)-4-(6-(trifluoromethyl)pyridin-3-yl)pyrido[2,3-d]pyrimidine]",50 to 500 nM
4,"Cc1nc2cc(N3CCO[C@H](c4cnn(C5CC5)c4)C3)nc(-c3ccc(Cl)cc3F)c2nc1C [Example 383, (2R)-4-[5-(4-chloro-2-fluoro-phenyl)-2,3-dimethyl-pyrido[3,4-b]pyrazin-7-yl]-2-(1-cyclopropylpyrazol-4-yl)morpholine]",50 to 500 nM
5,"Cc1cc([C@H]2C[C@H](c3cc4nc(C)c(C)cc4c(-c4ccc(F)cc4F)n3)CCO2)ccn1 (racemic) [Example 400, 5-(2,4-difluorophenyl)-2,3-dimethyl-7-[2-(2-methyl-4-pyridyl)tetrahydropyran-4-yl]-1,6-naphthyridine]",≤ 50 nM
6,"Cc1nc2cc(N3C[C@@H](C)O[C@@H](c4cnn(C5CC5)c4)C3)nc(-c3ccc(F)cc3F)c2nc1C (racemic) [Example 358, 2-(1-cyclopropyl-1H-pyrazol-4-yl)-4-(5-(2,4-difluorophenyl)-2,3-dimethylpyrido[3,4-b]pyrazin-7-yl)-6-methylmorpholine]",≤ 50 nM
7,"Cc1cc(C2CC(c3cc4nc(C)c(C)cc4c(-c4ccc(F)cc4F)n3)CCO2)ccn1 (stereo not drawn) [Example 328, 5-(2,4-difluorophenyl)-2,3-dimethyl-7-(2-(2-methylpyridin-4-yl)tetrahydro-2H-pyran-4-yl)-1,6-naphthyridine]",≤ 50 nM
8,"Cc1cc([C@H]2CN(c3nc(-c4cc(F)c(Cl)cc4F)c4nc(C)c(C)nc4n3)CCO2)ccn1 [Example 387, (2S)-4-[4-(4-chloro-2,5-difluoro-phenyl)-6,7-dimethyl-pteridin-2-yl]-2-(2-methyl-4-pyridyl)morpholine]",≤ 50 nM
9,"Cc1nc2cc(N3C[C@@H](C)O[C@@H](c4cnn(C5CC5)c4)C3)nc(-c3ccc(F)cc3F)c2nc1C [Example 403, (2S,6R)-2-(1-cyclopropyl-1H-pyrazol-4-yl)-4-(5-(2,4-difluorophenyl)-2,3-dimethylpyrido[3,4-b]pyrazin-7-yl)-6-methylmorpholine]",50 to 500 nM
10,"Cc1cc([C@@H]2CN(c3nc(-c4cc(F)c(Cl)cc4F)c4nc(C)c(C)nc4n3)CCO2)ccn1 [Example 391, (2R)-4-[4-(4-chloro-2,5-difluoro-phenyl)-6,7-dimethyl-pteridin-2-yl]-2-(2-methyl-4-pyridyl)morpholine]",≤ 50 nM
11,"Cc1cnc2c(C34CC(C)(C3)C4)nc([C@H]3C[C@@H](C)O[C@@H](c4cnn(C5CC5)c4)C3)cc2n1 [Example 421, 7-((2R,4S,6R)-2-(1-cyclopropyl-1H-pyrazol-4-yl)-6-methyltetrahydro-2H-pyran-4-yl)-2-methyl-5-(3-methylbicyclo[1.1.1]pentan-1-yl)pyrido[3,4-b]pyrazine]",500 to 3000 nM
12,"Cc1cc(C2CN(c3cc4nc(C)cnc4c(-c4ccc(F)cc4F)n3)CCO2)ccn1 (stereo not drawn) [Example 313, 4-(5-(2,4-difluorophenyl)-2-methylpyrido[3,4-b]pyrazin-7-yl)-2-(2-methylpyridin-4-yl)morpholine]",≤ 50 nM
13,"Cc1cnc2c(-c3ccc(Cl)cc3F)nc(N3C[C@@H](C)O[C@@H](c4cnn(C5CC5)c4)C3)cc2n1 (racemic) [Example 368, 4-(5-(4-chloro-2-fluorophenyl)-2-methylpyrido[3,4-b]pyrazin-7-yl)-2-(1-cyclopropyl-1H-pyrazol-4-yl)-6-methylmorpholine]",50 to 500 nM
14,"Cc1nc2nc([C@H]3CCO[C@@H](c4cnn(C5CC5)c4)C3)nc(C34CC(C(F)(F)F)(C3)C4)c2nc1C (stereo in doubt) [Example 366, 2-(2-(1-cyclopropyl-1H-pyrazol-4-yl)tetrahydro-2H-pyran-4-yl)-6,7-dimethyl-4-(3-(trifluoromethyl)bicyclo[1.1.1]pentan-1-yl)pteridine]",≤ 50 nM
15,"Cc1nc2cc(N3CCO[C@H](c4cnn(C5CC5)c4)C3)nc(-c3ccc(C(F)(F)F)nc3)c2nc1C [Example 385, (2R)-2-(1-cyclopropylpyrazol-4-yl)-4-[2,3-dimethyl-5-[6-(trifluoromethyl)-3-pyridyl]pyrido[3,4-b]pyrazin-7-yl]morpholine]",50 to 500 nM
16,"Cc1cc([C@H]2C[C@@H](c3cc4nc(C)c(C)cc4c(-c4ccc(F)cc4F)n3)CCO2)ccn1 (racemic) [Example 399, 5-(2,4-difluorophenyl)-2,3-dimethyl-7-[2-(2-methyl-4-pyridyl)tetrahydropyran-4-yl]-1,6-naphthyridine]",≤ 50 nM
17,"Cc1cc([C@H]2C[C@@H](c3cc4nc(C)cnc4c(-c4ccc(Cl)cc4F)n3)CCO2)ccn1 (racemic) [Example 310, 5-(4-chloro-2-fluorophenyl)-2-methyl-7-(2-(2-methylpyridin-4-yl)tetrahydro-2H-pyran-4-yl)pyrido[3,4-b]pyrazine]",50 to 500 nM
18,"Cc1nc2cc(N3CCOC(c4cnn(C5CC5)c4)C3)nc(-c3ccc(C(F)(F)F)nc3)c2nc1C (stereo not drawn) [Example 349, 2-(1-cyclopropyl-1H-pyrazol-4-yl)-4-(2,3-dimethyl-5-(6-(trifluoromethyl)pyridin-3-yl)pyrido[3,4-b]pyrazin-7-yl)morpholine]",≤ 50 nM
19,"Cc1cc([C@H]2C[C@@H](c3cc4nc(C)c(C)nc4c(-c4ccc(F)cc4F)n3)CCO2)ccn1 [Example 317, 5-(2,4-difluorophenyl)-2,3-dimethyl-7-[(2R,4S)-2-(2-methyl-4-pyridyl)tetrahydropyran-4-yl]pyrido[3,4-b]pyrazine]",≤ 50 nM
20,"Cc1cc(C2CC(c3cc4nc(C)ccc4c(-c4ccc(F)cc4F)n3)CCO2)ccn1 (stereo not drawn) [Example 326, 5-(2,4-difluorophenyl)-2-methyl-7-(2-(2-methylpyridin-4-yl)tetrahydro-2H-pyran-4-yl)-1,6-naphthyridine]",≤ 50 nM
21,"Cc1nc2cc(N3CCO[C@@H](c4cnn(C5CC5)c4)C3)nc(-c3ccc(Cl)cc3F)c2nc1C [Example 382, (2S)-4-[5-(4-chloro-2-fluoro-phenyl)-2,3-dimethyl-pyrido[3,4-b]pyrazin-7-yl]-2-(1-cyclopropylpyrazol-4-yl)morpholine]",≤ 50 nM
22,"Cc1cnc2c(C34CC(C(F)(F)F)(C3)C4)nc([C@@H]3CCO[C@@H](c4cnn(C5CC5)c4)C3)nc2n1 [Example 406, 2-((2R,4R)-2-(1-cyclopropyl-1H-pyrazol-4-yl)tetrahydro-2H-pyran-4-yl)-7-methyl-4-(3-(trifluoromethyl)bicyclo[1.1.1]pentan-1-yl)pteridine]",500 to 3000 nM
23,"Cc1cc([C@H]2C[C@H](c3cc4nc(C)c(C)nc4c(-c4ccc(F)cc4F)n3)CCO2)ccn1 [Example 331, 5-(2,4-difluorophenyl)-2,3-dimethyl-7-((2R,4R)-2-(2-methylpyridin-4-yl)tetrahydro-2H-pyran-4-yl)pyrido[3,4-b]pyrazine]",500 to 3000 nM
24,"Cc1cc(C2CN(c3nc(-c4ccc(Cl)c(F)c4F)c4nc(C)c(C)nc4n3)CCO2)ccn1 (stereo not drawn) [Example 337, 4-(4-(4-chloro-2,3-difluorophenyl)-6,7-dimethylpteridin-2-yl)-2-(2-methylpyridin-4-yl)morpholine]",≤ 50 nM
25,"Cc1cc([C@H]2C[C@@H](c3nc(-c4ccc(Cl)c(F)c4F)c4nc(C)c(C)nc4n3)CCO2)ccn1 [Example 397, 4-(4-chloro-2,3-difluorophenyl)-6,7-dimethyl-2-((2R,4S)-2-(2-methylpyridin-4-yl)tetrahydro-2H-pyran-4-yl)pteridine]",≤ 50 nM
26,"Cc1cnc2c(-c3ccc(F)cc3F)nc([C@H]3C[C@@H](C)O[C@@H](c4cnn(C5CC5)c4)C3)nc2n1 [Example 415, 2-((2R,4S,6R)-2-(1-cyclopropyl-1H-pyrazol-4-yl)-6-methyltetrahydro-2H-pyran-4-yl)-4-(2,4-difluorophenyl)-7-methylpteridine]",50 to 500 nM
27,"Cc1nc2cc([C@H]3CCO[C@@H](c4cnn(C5CC5)c4)C3)nc(C34CC(C(F)(F)F)(C3)C4)c2nc1C (mixture of isomers) [Example 392, 2,3-dimethyl-7-[2-(1-cyclopropylpyrazol-4-yl)tetrahydropyran-4-yl]-5-[3-(trifluoromethyl)-1-bicyclo[1.1.1]pentanyl]pyrido[3,4-b]pyrazine]",≤ 50 nM
